Oligonucleotides are written 5' to 3', each unit as a sugar letter and its base; * is a phosphorothioate linkage, no mark a phosphodiester; rarer units and linkages stand in square brackets, end groups in braces. Plain capitals give the bases only. k = constrained ethyl (cEt); [5mC] = 5-methylcytosine; d = 2'-deoxy (DNA)
How the values were obtained:
AR mRNA [1] = assay: Antisense inhibition of human AR in HuVEC cells, single concentration (electroporation, qRT-PCR RTS3559); format: cell-based; conditions: 500 nM ASO, ~24 h
In short: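 HuVEC cells electroporated with antisense oligonucleotides at a single concentration. AR mRNA quantified by qRT-PCR using human primer-probe set RTS3559 and normalised to total RNA content by RIBOGREEN.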

AR mRNA [2] = assay: Dose-dependent antisense inhibition of human AR in HuVEC cells (electroporation, qRT-PCR RTS3559, IC50); format: cell-based; conditions: HuVEC, electroporation, approximately 16 hours
In short: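 HuVEC cells dosed with antisense oligonucleotides by electroporation and treated approximately 16 hours. AR mRNA quantified by real-time qPCR with primer probe set RTS3559 and normalised to total RNA by RIBOGREEN; IC50 from dose-response.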

Substance	% inhibition (AR mRNA [1]; Table 17) [%]	percent inhibition of AR, 46.9 nM (AR mRNA [2]; Table 29) [%]	percent inhibition of AR, 187.5 nM (AR mRNA [2]; Table 29) [%]	percent inhibition of AR, 750.0 nM (AR mRNA [2]; Table 29) [%]	percent inhibition of AR, 3000.0 nM (AR mRNA [2]; Table 29) [%]	IC50 (AR mRNA [2]; Table 29) [nM]	percent inhibition of AR, 46.9 nM (AR mRNA [2]; Table 30) [%]	percent inhibition of AR, 187.5 nM (AR mRNA [2]; Table 30) [%]	percent inhibition of AR, 750.0 nM (AR mRNA [2]; Table 30) [%]	percent inhibition of AR, 3000.0 nM (AR mRNA [2]; Table 30) [%]	IC50 (AR mRNA [2]; Table 30) [nM]	% inhibition (AR mRNA [1]; Table 18) [%]
583613 (antisense kG*k[5mC]*kA*dA*dT*dG*dT*dG*d[5mC]*dA*dG*d[5mC]*dT*kA*kG*k[5mC]) [compound 583613]	51	24	60	70	75	190						
583635 (antisense k[5mC]*kT*kG*dG*d[5mC]*dT*d[5mC]*d[5mC]*dG*d[5mC]*dA*d[5mC]*dT*k[5mC]*kG*kG) [compound 583635]	50	35	56	69	78	130						
583637 (antisense kA*kT*k[5mC]*dT*d[5mC]*dT*dG*dG*d[5mC]*dT*d[5mC]*d[5mC]*dG*k[5mC]*kA*k[5mC]) [compound 583637]	43						22	32	59	75	450	
583638 (antisense kT*kG*kA*dT*d[5mC]*dT*d[5mC]*dT*dG*dG*d[5mC]*dT*d[5mC]*k[5mC]*kG*k[5mC]) [compound 583638]	51	33	64	79	85	110						
583642 (antisense kA*kG*kT*dG*dT*d[5mC]*d[5mC]*dA*d[5mC]*dT*dG*dA*dA*kG*kT*kA) [compound 583642]	42						18	35	67	74	460	
583649 (antisense kA*kG*kG*d[5mC]*dT*d[5mC]*dA*d[5mC]*dA*dG*dT*d[5mC]*dT*kG*kT*k[5mC]) [compound 583649]	46	28	50	68	84	200						
583660 (antisense kG*kA*k[5mC]*dA*d[5mC]*dA*d[5mC]*dG*dG*dT*dG*dG*dA*k[5mC]*kA*kA) [compound 583660]	44	21	39	61	72	420						
583662 (antisense kA*kG*kA*dA*dG*dA*d[5mC]*dA*d[5mC]*dA*d[5mC]*dG*dG*kT*kG*kG) [compound 583662]	51	27	59	75	75	150						
583667 (antisense k[5mC]*kG*k[5mC]*dT*d[5mC]*dT*dG*dA*d[5mC]*dA*dG*d[5mC]*d[5mC]*kT*k[5mC]*kA) [compound 583667]	42						35	55	73	82	140	
583687 (antisense kG*kG*kT*dA*dG*dT*d[5mC]*dG*d[5mC]*dT*dG*d[5mC]*dA*kG*k[5mC]*kT) [compound 583687]							34	67	83	81	80	41
583688 (antisense kG*k[5mC]*kG*dG*dT*dA*dG*dT*d[5mC]*dG*d[5mC]*dT*dG*k[5mC]*kA*kG) [compound 583688]							3	26	50	60	1050	38
583689 (antisense kA*kT*kG*d[5mC]*dG*dG*dT*dA*dG*dT*d[5mC]*dG*d[5mC]*kT*kG*k[5mC]) [compound 583689]							20	34	62	74	440	39

— patent USRE48461E1, “Modulation of androgen receptor expression” (Ionis Pharmaceuticals, Inc., priority 2012, dated 2021)
